{"source": "patent US10435405B2", "about": "“Pyrazolopyridine compounds and uses thereof” (Incyte Corporation, priority 2016, dated 2019)", "data": [{"molecular_target": "HPK1 (Homo sapiens (Human), UniProt Q92918)", "sequence (Q92918 1-346)": "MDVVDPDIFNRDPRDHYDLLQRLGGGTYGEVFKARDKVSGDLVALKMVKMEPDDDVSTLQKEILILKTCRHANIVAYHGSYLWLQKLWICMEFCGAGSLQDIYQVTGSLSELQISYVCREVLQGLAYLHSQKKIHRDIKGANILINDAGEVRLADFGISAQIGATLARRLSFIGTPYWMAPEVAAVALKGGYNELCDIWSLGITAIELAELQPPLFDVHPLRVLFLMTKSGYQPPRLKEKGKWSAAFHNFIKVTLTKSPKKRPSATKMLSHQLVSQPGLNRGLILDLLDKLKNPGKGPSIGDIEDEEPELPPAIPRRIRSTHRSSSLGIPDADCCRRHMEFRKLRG", "test": "HPK1 Kinase Binding Assay", "how_it_was_run": "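This is a LanthaScreen tracer-binding format: a tracer 222/Eu-anti-GST antibody mix (18 nM and 4 nM solution) is added to active HPK1 (4 nM solution) with 3-fold, 11-point compound dilutions. Incubation is 1 h at 25 °C in HEPES pH 7.5 buffer before reading, and Ki is determined.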", "units": {"Ki": "nM"}, "values": [{"smiles": "CN1CCN(c2ccc(C(=O)Nc3n[nH]c4cnc(-c5c(F)cccc5C(F)(F)F)cc34)cc2)CC1", "note": "[Example 153, N-(5-(2-Fluoro-6-(trifluoromethyl)phenyl)-1H-pyrazolo[3,4-c]pyridin-3-yl)-4-(4-methylpiperazin-1-yl)benzamide]", "Ki": "≤ 100"}, {"smiles": "CCNCc1cc(F)c(-c2cc3c(NC(=O)c4ccc(N5CCN(C)CC5)cc4)n[nH]c3cn2)c(C(F)(F)F)c1", "note": "[Example 154, N-(5-(4-((Ethylamino)methyl)-2-fluoro-6-(trifluoromethyl)phenyl)-1H-pyrazolo[3,4-c]pyridin-3-yl)-4-(4-methylpiperazin-1-yl)benzamide]", "Ki": "≤ 100"}, {"smiles": "CC(C)NCc1cc(F)c(-c2cc3c(C(=O)Nc4ccc(N5CCN(C)CC5)cc4)n[nH]c3cn2)c(F)c1", "note": "[Example 155, 5-(2,6-Difluoro-4-((isopropylamino)methyl)phenyl)-N-(4-(4-methylpiperazin-1-yl)phenyl)-1H-pyrazolo[3,4-c]pyridine-3-carboxamide]", "Ki": "≤ 100"}, {"smiles": "CN1CCN(c2ccc(C(=O)Nc3n[nH]c4cnc(-c5c(F)cc(NC(=O)CN6CCCC6)cc5F)cc34)cc2)CC1", "note": "[Example 156, N-(5-(2,6-Difluoro-4-(2-(pyrrolidin-1-yl)acetamido)phenyl)-1H-pyrazolo[3,4-c]pyridin-3-yl)-4-(4-methylpiperazin-1-yl)benzamide]", "Ki": "≤ 100"}, {"smiles": "Cc1cccc(F)c1-c1cc2c(NC(=O)c3ccc(N4CCN(C)CC4)cc3N)n[nH]c2cn1", "note": "[Example 157, 2-Amino-N-(5-(2-fluoro-6-methylphenyl)-1H-pyrazolo[3,4-c]pyridin-3-yl)-4-(4-methylpiperazin-1-yl)benzamide]", "Ki": "≤ 100"}, {"smiles": "Cc1cccc(F)c1-c1cc2c(NC(=O)c3ccc(N4CCN(C)CC4)cc3NCC(C)O)n[nH]c2cn1", "note": "(stereo not drawn) [Example 158, N-(5-(2-Fluoro-6-methylphenyl)-1H-pyrazolo[3,4-c]pyridin-3-yl)-2-(2-hydroxypropylamino)-4-(4-methylpiperazin-1-yl)benzamide]", "Ki": "≤ 100"}, {"smiles": "Cc1cccc(F)c1-c1cc2c(NC(=O)c3ccc(N4CCN(C)CC4)cc3NCc3ccnn3C)n[nH]c2cn1", "note": "[Example 159, N-(5-(2-Fluoro-6-methylphenyl)-1H-pyrazolo[3,4-c]pyridin-3-yl)-2-((1-methyl-1H-pyrazol-5-yl)methylamino)-4-(4-methylpiperazin-1-yl)benzamide]", "Ki": "≤ 100"}, {"smiles": "Cc1cccc(F)c1-c1cc2c(NC(=O)c3ccc(N4CCN(C)CC4)cc3NC3CCC(C#N)C3)n[nH]c2cn1", "note": "(stereo not drawn) [Example 160, 2-(3-Cyanocyclopentylamino)-N-(5-(2-fluoro-6-methylphenyl)-1H-pyrazolo[3,4-c]pyridin-3-yl)-4-(4-methylpiperazin-1-yl)benzamide]", "Ki": "≤ 100"}, {"smiles": "CNCc1cc(F)c(-c2cc3c(-c4cnn(-c5ccccc5C#N)c4)n[nH]c3cn2)c(F)c1", "note": "[Example 161, 2-(4-(5-(2,6-Difluoro-4-((methylamino)methyl)phenyl)-1H-pyrazolo[3,4-c]pyridin-3-yl)-1H-pyrazol-1-yl)benzonitrile]", "Ki": "≤ 100"}, {"smiles": "CNCc1cc(F)c(-c2cc3c(-c4cnn(C5CNC5)c4)n[nH]c3cn2)c(F)c1", "note": "[Example 162, 1-(4-(3-(1-(Azetidin-3-yl)-1H-pyrazol-4-yl)-1H-pyrazolo[3,4-c]pyridin-5-yl)-3,5-difluorophenyl)-N-methylmethanamine]", "Ki": "≤ 100"}, {"smiles": "CNCc1cc(F)c(-c2cc3c(-c4ccnc(N5CCN(C)CC5)c4)n[nH]c3cn2)c(F)c1", "note": "[Example 163, 1-(3,5-Difluoro-4-(3-(2-(4-methylpiperazin-1-yl)pyridin-4-yl)-1H-pyrazolo[3,4-c]pyridin-5-yl)phenyl)-N-methylmethanamine]", "Ki": "≤ 100"}, {"smiles": "CNCc1cc(F)c(-c2cc3c(-c4cnn(CCO)c4)n[nH]c3cn2)c(F)c1", "note": "[Example 164, 2-(4-(5-(2,6-Difluoro-4-((methylamino)methyl)phenyl)-1H-pyrazolo[3,4-c]pyridin-3-yl)-1H-pyrazol-1-yl)ethanol]", "Ki": "≤ 100"}, {"smiles": "CNCc1cc(F)c(-c2cc3c(-c4ccc(OC)cc4)n[nH]c3cn2)c(F)c1", "note": "[Example 165, 1-(3,5-Difluoro-4-(3-(4-methoxyphenyl)-1H-pyrazolo[3,4-c]pyridin-5-yl)phenyl)-N-methylmethanamine]", "Ki": "≤ 100"}, {"smiles": "CNCc1cc(F)c(-c2cc3c(-c4ccc(N5CCC(O)CC5)nc4)n[nH]c3cn2)c(F)c1", "note": "[Example 166, 1-(5-(5-(2,6-Difluoro-4-((methylamino)methyl)phenyl)-1H-pyrazolo[3,4-c]pyridin-3-yl)pyridin-2-yl)piperidin-4-ol]", "Ki": "≤ 100"}, {"smiles": "CNCc1cc(F)c(-c2cc3c(-c4ccc(N5CCC(F)C5)cn4)n[nH]c3cn2)c(F)c1", "note": "(stereo not drawn) [Example 167, 1-(3,5-Difluoro-4-(3-(5-(3-fluoropyrrolidin-1-yl)pyridin-2-yl)-1H-pyrazolo[3,4-c]pyridin-5-yl)phenyl)-N-methylmethanamine]", "Ki": "≤ 100"}, {"smiles": "CNCc1cc(C)c(-c2cc3c(-c4cnn(C)c4)n[nH]c3cn2)c(F)c1", "note": "[Example 168, 1-(3-Fluoro-5-methyl-4-(3-(1-methyl-1H-pyrazol-4-yl)-1H-pyrazolo[3,4-c]pyridin-5-yl)phenyl)-N-methylmethanamine]", "Ki": "≤ 100"}, {"smiles": "CNCc1cc(C)c(-c2cc3c(-c4ccc(C(=O)NC)cc4)n[nH]c3cn2)c(F)c1", "note": "[Example 169, 4-(5-(2-Fluoro-6-methyl-4-((methylamino)methyl)phenyl)-1H-pyrazolo[3,4-c]pyridin-3-yl)-N-methylbenzamide]", "Ki": "≤ 100"}, {"smiles": "CNC(=O)c1ccc(-c2n[nH]c3cnc(-c4c(C)cc(C5CCCN5)cc4F)cc23)cc1", "note": "(stereo not drawn) [Example 170, 4-(5-(2-Fluoro-6-methyl-4-(pyrrolidin-2-yl)phenyl)-1H-pyrazolo[3,4-c]pyridin-3-yl)-N-methylbenzamide]", "Ki": "≤ 100"}, {"smiles": "Cc1cc(C2CCCN2C)cc(F)c1-c1cc2c(-c3cnn(C)c3)n[nH]c2cn1", "note": "(stereo not drawn) [Example 173, 5-(2-Fluoro-6-methyl-4-(1-methylpyrrolidin-2-yl)phenyl)-3-(1-methyl-1H-pyrazol-4-yl)-1H-pyrazolo[3,4-c]pyridine]", "Ki": "≤ 100"}, {"smiles": "CCNCc1cc(C)c(-c2cc3c(-c4cnn(C)c4)n[nH]c3cn2)c(F)c1", "note": "[Example 176, N-(3-Fluoro-5-methyl-4-(3-(1-methyl-1H-pyrazol-4-yl)-1H-pyrazolo[3,4-c]pyridin-5-yl)benzyl)ethanamine]", "Ki": "≤ 100"}, {"smiles": "Cc1cc(CNC2CC2)cc(F)c1-c1cc2c(-c3cnn(C)c3)n[nH]c2cn1", "note": "[Example 177, N-(3-Fluoro-5-methyl-4-(3-(1-methyl-1H-pyrazol-4-yl)-1H-pyrazolo[3,4-c]pyridin-5-yl)benzyl)cyclopropanamine]", "Ki": "≤ 100"}, {"smiles": "Cc1cc(CNC(C)C)cc(F)c1-c1cc2c(-c3cnn(C)c3)n[nH]c2cn1", "note": "[Example 178, N-(3-Fluoro-5-methyl-4-(3-(1-methyl-1H-pyrazol-4-yl)-1H-pyrazolo[3,4-c]pyridin-5-yl)benzyl)propan-2-amine]", "Ki": "≤ 100"}, {"smiles": "Cc1cc(CNCC(F)(F)F)cc(F)c1-c1cc2c(-c3cnn(C)c3)n[nH]c2cn1", "note": "[Example 179, 2,2,2-Trifluoro-N-(3-fluoro-5-methyl-4-(3-(1-methyl-1H-pyrazol-4-yl)-1H-pyrazolo[3,4-c]pyridin-5-yl)benzyl)ethanamine]", "Ki": "≤ 100"}, {"smiles": "Cc1cc(CNCCO)cc(F)c1-c1cc2c(-c3cnn(C)c3)n[nH]c2cn1", "note": "[Example 180, 2-(3-Fluoro-5-methyl-4-(3-(1-methyl-1H-pyrazol-4-yl)-1H-pyrazolo[3,4-c]pyridin-5-yl)benzylamino)ethanol]", "Ki": "≤ 100"}, {"smiles": "Cc1cc(CNC2CC(O)C2)cc(F)c1-c1cc2c(-c3cnn(C)c3)n[nH]c2cn1", "note": "(stereo not drawn) [Example 181, 3-(3-Fluoro-5-methyl-4-(3-(1-methyl-1H-pyrazol-4-yl)-1H-pyrazolo[3,4-c]pyridin-5-yl)benzylamino)cyclobutanol]", "Ki": "≤ 100"}, {"smiles": "Cc1cc(CN2CCC2)cc(F)c1-c1cc2c(-c3cnn(C)c3)n[nH]c2cn1", "note": "[Example 182, 5-(4-(Azetidin-1-ylmethyl)-2-fluoro-6-methylphenyl)-3-(1-methyl-1H-pyrazol-4-yl)-1H-pyrazolo[3,4-c]pyridine]", "Ki": "≤ 100"}, {"smiles": "Cc1cc(CN2CCC(O)C2)cc(F)c1-c1cc2c(-c3cnn(C)c3)n[nH]c2cn1", "note": "(stereo not drawn) [Example 183, 1-(3-Fluoro-5-methyl-4-(3-(1-methyl-1H-pyrazol-4-yl)-1H-pyrazolo[3,4-c]pyridin-5-yl)benzyl)pyrrolidin-3-ol]", "Ki": "≤ 100"}, {"smiles": "Cc1cc(CNCC(C)(C)O)cc(F)c1-c1cc2c(-c3cnn(C)c3)n[nH]c2cn1", "note": "[Example 184, 1-(3-Fluoro-5-methyl-4-(3-(1-methyl-1H-pyrazol-4-yl)-1H-pyrazolo[3,4-c]pyridin-5-yl)benzylamino)-2-methylpropan-2-ol]", "Ki": "≤ 100"}, {"smiles": "COC1CN(Cc2cc(C)c(-c3cc4c(-c5cnn(C)c5)n[nH]c4cn3)c(F)c2)C1", "note": "[Example 185, 5-(2-Fluoro-4-((3-methoxyazetidin-1-yl)methyl)-6-methylphenyl)-3-(1-methyl-1H-pyrazol-4-yl)-1H-pyrazolo[3,4-c]pyridine]", "Ki": "≤ 100"}, {"smiles": "Cc1cc(CNCc2cn(C)cn2)cc(F)c1-c1cc2c(-c3cnn(C)c3)n[nH]c2cn1", "note": "[Example 186, N-(3-Fluoro-5-methyl-4-(3-(1-methyl-1H-pyrazol-4-yl)-1H-pyrazolo[3,4-c]pyridin-5-yl)benzyl)-1-(1-methyl-1H-imidazol-4-yl)methanamine]", "Ki": "≤ 100"}, {"smiles": "Cc1cc(CNCc2cocn2)cc(F)c1-c1cc2c(-c3cnn(C)c3)n[nH]c2cn1", "note": "[Example 187, N-(3-Fluoro-5-methyl-4-(3-(1-methyl-1H-pyrazol-4-yl)-1H-pyrazolo[3,4-c]pyridin-5-yl)benzyl)-1-(oxazol-4-yl)methanamine]", "Ki": "≤ 100"}, {"smiles": "Cc1cc(CNCC#N)cc(F)c1-c1cc2c(-c3cnn(C)c3)n[nH]c2cn1", "note": "[Example 188, 2-(3-Fluoro-5-methyl-4-(3-(1-methyl-1H-pyrazol-4-yl)-1H-pyrazolo[3,4-c]pyridin-5-yl)benzylamino)acetonitrile]", "Ki": "≤ 100"}, {"smiles": "CC(=O)NCc1cc(C)c(-c2cc3c(-c4cnn(C)c4)n[nH]c3cn2)c(F)c1", "note": "[Example 191, N-(3-Fluoro-5-methyl-4-(3-(1-methyl-1H-pyrazol-4-yl)-1H-pyrazolo[3,4-c]pyridin-5-yl)benzyl)acetamide]", "Ki": "≤ 100"}]}]}
